Experimental data from US20110294772A1, “USE OF CYCLOSQUARAMIDE COMPOUNDS AS ANTI-TUMOUR AGENTS” (priority 2008, published 2011).

Columns and labels:
Rec-1 = experiment: cell viability assay; assay type: cell-based, human; conditions: Rec-1 B-cell lymphoma (MCL), 48 h, with respect to untreated control cells
Granta-519 = experiment: cell viability assay; assay type: cell-based, human; conditions: Granta-519 B-cell lymphoma (MCL), 48 h, with respect to untreated control cells
U-251 (CNS) = experiment: NCI60 panel IC50; assay type: cell-based; conditions: Homo sapiens
Method: (§1) On the other hand, the values of IC50 were determined in the panel of NCl60 cell lines for compound 10.
(§2) A total of 2 independent experiments were carried out with assays in triplicate for the compound and cell line. All those assays where an IC50 value was not reached in the highest concentration of 1E-05 M are represented by “>1E-05”. In these cases, the standard deviation cannot be calculated and for that reason it is calculated as “-”.

Sw-620 (Colon) = experiment: NCI60 panel IC50; assay type: cell-based; conditions: Homo sapiens
Method: as §1, §2

MCF-7 (Breast) = experiment: NCI60 panel IC50; assay type: cell-based; conditions: Homo sapiens, MCF7
Method: as §1, §2

COLO-205 (Colon) = experiment: NCI60 panel IC50; assay type: cell-based; conditions: Homo sapiens
Method: as §1, §2

HOP-92 (Lung) = experiment: NCI60 panel IC50; assay type: cell-based; conditions: Homo sapiens
Method: as §1, §2

Caki-1 (Renal) = experiment: NCI60 panel IC50; assay type: cell-based; conditions: Homo sapiens
Method: as §1, §2

SK-OV-3 (Ovarian) = experiment: NCI60 panel IC50; assay type: cell-based; conditions: Homo sapiens
Method: as §1, §2

K-562 (Leukaemia) = experiment: NCI60 panel IC50; assay type: cell-based; conditions: Homo sapiens, K562
Method: as §1, §2

SK-MEL-2 (Melanoma) = experiment: NCI60 panel IC50; assay type: cell-based; conditions: Homo sapiens
Method: as §1, §2

UACC-62 (Melanoma) = experiment: NCI60 panel IC50; assay type: cell-based; conditions: Homo sapiens
Method: as §1, §2

SNB-19 (CNS) = experiment: NCI60 panel IC50; assay type: cell-based; conditions: Homo sapiens
Method: as §1, §2

NCI-H226 (Lung) = experiment: NCI60 panel IC50; assay type: cell-based; conditions: Homo sapiens
Method: as §1, §2

MOLT-4 (Leukaemia) = experiment: NCI60 panel IC50; assay type: cell-based; conditions: Homo sapiens
Method: as §1, §2

NCI-H460 (Lung) = experiment: NCI60 panel IC50; assay type: cell-based; conditions: Homo sapiens
Method: as §1, §2

MDA-MB-435 S (Breast) = experiment: NCI60 panel IC50; assay type: cell-based; conditions: Homo sapiens
Method: as §1, §2

BT-549 (Breast) = experiment: NCI60 panel IC50; assay type: cell-based; conditions: Homo sapiens
Method: as §1, §2

SF539 (Astrocytoma) = experiment: NCI60 panel IC50; assay type: cell-based; conditions: Homo sapiens, SF-539
Method: as §1, §2

SN 12C (Renal) = experiment: NCI60 panel IC50; assay type: cell-based; conditions: Homo sapiens, SN12C
Method: as §1, §2

SK-MEL-5 (Melanoma) = experiment: NCI60 panel IC50; assay type: cell-based; conditions: Homo sapiens
Method: as §1, §2

T47-D (Breast) = experiment: NCI60 panel IC50; assay type: cell-based; conditions: Homo sapiens, T47D
Method: as §1, §2

ACHN (Renal) = experiment: NCI60 panel IC50; assay type: cell-based; conditions: Homo sapiens
Method: as §1, §2

NCI-H23 (Lung) = experiment: NCI60 panel IC50; assay type: cell-based; conditions: Homo sapiens
Method: as §1, §2

M-14 (Melanoma) = experiment: NCI60 panel IC50; assay type: cell-based; conditions: Homo sapiens, M14
Method: as §1, §2

PC-3 (Prostate) = experiment: NCI60 panel IC50; assay type: cell-based; conditions: Homo sapiens
Method: as §1, §2

TK-10 (Renal) = experiment: NCI60 panel IC50; assay type: cell-based; conditions: Homo sapiens
Method: as §1, §2

SK-BR-3 (Breast) = experiment: NCI60 panel IC50; assay type: cell-based; conditions: Homo sapiens
Method: as §1, §2

SHP-77 (Lung) = experiment: NCI60 panel IC50; assay type: cell-based; conditions: Homo sapiens, SHP77
Method: as §1, §2

SF-295 (CNS) = experiment: NCI60 panel IC50; assay type: cell-based; conditions: Homo sapiens
Method: as §1, §2

IGR-OVI (Ovarian) = experiment: NCI60 panel IC50; assay type: cell-based; conditions: Homo sapiens
Method: as §1, §2

SW-480 (Colon) = experiment: NCI60 panel IC50; assay type: cell-based; conditions: Homo sapiens, SW480
Method: as §1, §2

DU-145 (Prostate) = experiment: NCI60 panel IC50; assay type: cell-based; conditions: Homo sapiens
Method: as §1, §2

MALME-3M (Melanoma) = experiment: NCI60 panel IC50; assay type: cell-based; conditions: Homo sapiens
Method: as §1, §2

DMS-114 (Lung) = experiment: NCI60 panel IC50; assay type: cell-based; conditions: Homo sapiens
Method: as §1, §2

MDA-MB-231 (Breast) = experiment: NCI60 panel IC50; assay type: cell-based; conditions: Homo sapiens
Method: as §1, §2

HCT-116 (Colon) = experiment: NCI60 panel IC50; assay type: cell-based; conditions: Homo sapiens
Method: as §1, §2

EKVX (Lung) = experiment: NCI60 panel IC50; assay type: cell-based; conditions: Homo sapiens
Method: as §1, §2

A549 (Lung) = experiment: NCI60 panel IC50; assay type: cell-based; conditions: Homo sapiens
Method: as §1, §2

RPMI-8226 (Leukaemia) = experiment: NCI60 panel IC50; assay type: cell-based; conditions: Homo sapiens
Method: as §1, §2

Hs-578-T (Breast) = experiment: NCI60 panel IC50; assay type: cell-based; conditions: Homo sapiens
Method: as §1, §2

RXF-393 (Renal) = experiment: NCI60 panel IC50; assay type: cell-based; conditions: Homo sapiens
Method: as §1, §2

ADR-RE-3 (Breast) = experiment: NCI60 panel IC50; assay type: cell-based; conditions: Homo sapiens
Method: as §1, §2

Hut = experiment: cell viability assay; assay type: cell-based, human; conditions: Hut T-cell lymphoma, 72 h, with respect to untreated control cells

Q: How did the “% Cell viability” value (Rec-1) turn out when `CN1CCCNc2c(c(=O)c2=O)NCCCN(C)CCCNc2c(c(=O)c2=O)NCCCN(C)CCCNc2c(c(=O)c2=O)NCCCN(C)CCCNc2c(c(=O)c2=O)NCCCN(C)CCCNc2c(c(=O)c2=O)NCCC1` [Compound 10] was run?
A: 44%

Q: And the “% Cell viability” value (Granta-519)?
A: 58%

Q: What about the IC50 (U-251 (CNS)) of the same compound?
A: 7.86 µM

Q: And the IC50 (Sw-620 (Colon))?
A: 9.41 µM

Q: And the IC50 (MCF-7 (Breast))?
A: 4.67 µM

Q: And the IC50 (COLO-205 (Colon))?
A: 3.23 µM

Q: What about the IC50 (HOP-92 (Lung)) of the same compound?
A: 3.53 µM

Q: And the IC50 (Caki-1 (Renal))?
A: 5.75 µM

Q: What about the IC50 (SK-OV-3 (Ovarian)) of the same compound?
A: 3.1 µM

Q: What about the IC50 (K-562 (Leukaemia)) of the same compound?
A: 4.07 µM

Q: What about the IC50 (SK-MEL-2 (Melanoma)) of the same compound?
A: 3.29 µM

Q: What about the IC50 (UACC-62 (Melanoma)) of the same compound?
A: 1.34 µM

Q: And the IC50 (SNB-19 (CNS))?
A: 1.81 µM

Q: What about the IC50 (NCI-H226 (Lung)) of the same compound?
A: 1.53 µM

Q: And the IC50 (MOLT-4 (Leukaemia))?
A: 1.36 µM

Q: And the IC50 (NCI-H460 (Lung))?
A: 6.88 µM

Q: What about the IC50 (MDA-MB-435 S (Breast)) of the same compound?
A: 3.66 µM

Q: And the IC50 (BT-549 (Breast))?
A: 2.21 µM

Q: What about the IC50 (SF539 (Astrocytoma)) of the same compound?
A: 3.52 µM

Q: What about the IC50 (SN 12C (Renal)) of the same compound?
A: 4.12 µM

Q: And the IC50 (SK-MEL-5 (Melanoma))?
A: 2.75 µM

Q: What about the IC50 (T47-D (Breast)) of the same compound?
A: 1.89 µM

Q: And the IC50 (ACHN (Renal))?
A: 3.25 µM

Q: What about the IC50 (NCI-H23 (Lung)) of the same compound?
A: 3.02 µM

Q: What about the IC50 (M-14 (Melanoma)) of the same compound?
A: 7.21 µM

Q: And the IC50 (PC-3 (Prostate))?
A: 2.46 µM

Q: What about the IC50 (TK-10 (Renal)) of the same compound?
A: 3.36 µM

Q: What about the IC50 (SK-BR-3 (Breast)) of the same compound?
A: 0.308 µM

Q: What about the IC50 (SHP-77 (Lung)) of the same compound?
A: 2.9 µM

Q: And the IC50 (SF-295 (CNS))?
A: 5.52 µM

Q: And the IC50 (IGR-OVI (Ovarian))?
A: 2.38 µM

Q: What about the IC50 (SW-480 (Colon)) of the same compound?
A: 1.8 µM

Q: What about the IC50 (DU-145 (Prostate)) of the same compound?
A: 1.8 µM

Q: What about the IC50 (MALME-3M (Melanoma)) of the same compound?
A: 9.28 µM

Q: And the IC50 (DMS-114 (Lung))?
A: 8.72 µM

Q: What about the IC50 (MDA-MB-231 (Breast)) of the same compound?
A: 2.32 µM

Q: What about the IC50 (HCT-116 (Colon)) of the same compound?
A: 2.98 µM

Q: And the IC50 (EKVX (Lung))?
A: 2.75 µM

Q: What about the IC50 (A549 (Lung)) of the same compound?
A: 5.29 µM

Q: What about the IC50 (RPMI-8226 (Leukaemia)) of the same compound?
A: 8.97 µM

Q: What about the IC50 (Hs-578-T (Breast)) of the same compound?
A: 7.79 µM

Q: And the IC50 (RXF-393 (Renal))?
A: 2.77 µM

Q: What about the IC50 (ADR-RE-3 (Breast)) of the same compound?
A: 1.62 µM

Q: And the “% Cell viability” value (Hut)?
A: 60%
